Measurements from ChEMBL document CHEMBL1201862, “PubChem BioAssay data set” (2004).
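Exposure lasted 48 hours, with cells grown in 96-well plates and compounds tested at five concentrations. GI50 is the concentration that inhibits growth by half.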 Activity calls are given as the source filed them. No stated cut-off is given here; in the data, active = GI50 up to about 1.1 µM and inactive = higher.

Assays:
Test in all cases: growth of human tumour cells (NCI), 48 h
ACHN = test system: ACHN
786-0 = test system: 786-0
NCI-H522 = test system: NCI-H522
Malme-3M = test system: Malme-3M
NCI-H460 = test system: NCI-H460
OVCAR-5 = test system: OVCAR-5
RXF 393 = test system: RXF 393
OVCAR-8 = test system: OVCAR-8
HOP-62 = test system: HOP-62
OVCAR-4 = test system: OVCAR-4
SF-295 = test system: SF-295
SW-620 = test system: SW-620
HT-29 = test system: HT-29
SK-MEL-28 = test system: SK-MEL-28
CCRF-CEM = test system: CCRF-CEM
DMS-273 = test system: DMS-273
Hs-578T = test system: Hs-578T
NCI/ADR-RES = test system: NCI/ADR-RES
MDA-N = test system: MDA-N
DU-145 = test system: DU-145

Measured: GI50

O=c1/c(=C/c2c(O)ccc3ccccc23)sc2nc3ccccc3n12
inactive: ACHN > 100 µM | 786-0 > 100 µM | NCI-H522 > 100 µM | Malme-3M > 100 µM | NCI-H460 > 100 µM | OVCAR-5 > 100 µM | RXF 393 > 100 µM | OVCAR-8 > 100 µM | HOP-62 > 100 µM | OVCAR-4 > 100 µM | SF-295 > 100 µM | SW-620 > 100 µM | HT-29 > 100 µM | SK-MEL-28 > 100 µM | CCRF-CEM > 100 µM | DMS-273 > 100 µM

COc1cccc2ccc3c(c12)C(=O)OC31CCc2c(C)cccc21 (stereo unspecified)
inactive: ACHN 8.04 µM | Hs-578T 38.5 µM | 786-0 28.8 µM | NCI-H522 21.4 µM | NCI/ADR-RES 13.4 µM | Malme-3M 19.1 µM | NCI-H460 10.6 µM | OVCAR-5 26.5 µM | MDA-N 7.55 µM | RXF 393 8.97 µM | OVCAR-8 15.8 µM | HOP-62 18.5 µM | OVCAR-4 15.2 µM | SF-295 9.95 µM | SW-620 12.1 µM | DU-145 34.2 µM | HT-29 11.8 µM | SK-MEL-28 22.4 µM | CCRF-CEM 24 µM | DMS-273 6.81 µM

COC(=O)C12C3C4C5(C(=O)OC)C(C1C35C(=O)N(C(C)C)C(C)C)C42C(=O)N(C(C)C)C(C)C (stereo unspecified)
inactive: ACHN > 50 µM | 786-0 > 50 µM | NCI-H522 > 47.2 µM | Malme-3M > 50 µM | NCI-H460 > 37.6 µM | OVCAR-5 > 50 µM | RXF 393 > 50 µM | OVCAR-8 > 50 µM | HOP-62 > 50 µM | OVCAR-4 > 35.6 µM | SF-295 > 50 µM | SW-620 > 25.5 µM | HT-29 > 50 µM | SK-MEL-28 > 50 µM | CCRF-CEM > 50 µM | DMS-273 > 30.8 µM

CC1=C2C(=CO[C@H](C)[C@H]2C)C(O)=C(C(=O)O)C1=O [CITRININ]
inactive: ACHN 21 µM | Hs-578T 27.5 µM | 786-0 24.5 µM | NCI-H522 12.4 µM | NCI/ADR-RES 43.8 µM | Malme-3M 50.1 µM | OVCAR-5 59.8 µM | MDA-N 26.2 µM | RXF 393 13.2 µM | OVCAR-8 13.2 µM | HOP-62 17.1 µM | OVCAR-4 32.9 µM | SF-295 35.8 µM | SW-620 20.6 µM | DU-145 24.2 µM | HT-29 33.9 µM | SK-MEL-28 31.8 µM | CCRF-CEM 14.8 µM | DMS-273 44 µM

COc1cc2ccc(=O)oc2cc1O [SCOPOLETIN]
inactive: ACHN > 100 µM | Hs-578T > 100 µM | 786-0 > 100 µM | NCI-H522 67.8 µM | NCI/ADR-RES 56.2 µM | Malme-3M 156 µM | NCI-H460 18.4 µM | OVCAR-5 156 µM | MDA-N > 100 µM | RXF 393 128 µM | OVCAR-8 52.1 µM | HOP-62 134 µM | OVCAR-4 101 µM | SF-295 19.7 µM | SW-620 67.3 µM | DU-145 > 100 µM | HT-29 161 µM | SK-MEL-28 73.3 µM | CCRF-CEM 30.4 µM | DMS-273 36.3 µM
